# Target: WDR5 (Homo sapiens (Human), UniProt P61964)
# Test: TR-FRET binding assay (displacement of 10mer-Thr-FAM probe from WDR5)
# Conditions: not given
row,Compound,Ki [nM]
1,"COc1cccc(-c2cc(Cn3ccn(C)c3=N)cc(C(=O)NCc3ccc(Cl)c(Cl)c3)c2)n1 [Example 169, N-(3,4-Dichlorobenzyl)-3-((2-imino-3-methyl-2,3-dihydro-1H-imidazol-1-yl)methyl)-5-(6-methoxypyridin-2-yl)benzamide]",23

# Same assay, conditions: read-out: Ki for Inhibition of WDR5 by TR-FRET assay
row,Compound,Ki [nM]
1,"Cc1cc([C@@H](NC(=O)c2cc(Cn3ccn(-c4ccccc4)c3=N)cc(-c3cccnc3C(F)(F)F)c2)C2CC2)ccc1F [Example 137, (S)—N-(Cyclopropyl(4-fluoro-3-methylphenyl)methyl)-3-((2-imino-3-phenyl-2,3-dihydro-1H-imidazol-1-yl)methyl)-5-(2-(trifluoromethyl)pyridin-3-yl)benzamide]",> 33
2,C[C@H](NC(=O)c1cc(Cn2ccoc2=N)cc(-c2cccnc2C(F)(F)F)c1)c1ccc(C(F)(F)F)cc1 [Example 258],5.8
3,"CCn1cc(-c2cc(CN3CCOC3=N)cc(C(=O)NCC3CCOCC3)c2)c(C(F)(F)F)n1 [Example 288, 3-(1-Ethyl-3-(trifluoromethyl)-1H-pyrazol-4-yl)-5-((2-iminooxazolidin-3-yl)methyl)-N-((tetrahydro-2H-pyran-4-yl)methyl)benzamide]",8.7
4,"Cc1cc([C@@H](NC(=O)c2cc(Cn3c(C)coc3=N)cc(-c3cccnc3C(F)(F)F)c2)C2CC2)ccc1F [Example 252, (S)—N-(Cyclopropyl(4-fluoro-3-methylphenyl)methyl)-3-((2-imino-4-methyloxazol-3(2H)-yl)methyl)-5-(2-(trifluoromethyl)pyridin-3-yl)benzamide]",21
5,"CCn1cc(-c2cc(Cn3ccn(C4CC4)c3=N)cc(C(=O)NCc3ccc(F)c(C)c3)c2)c(C(F)(F)F)n1 [Example 197, 3-((3-Cyclopropyl-2-imino-2,3-dihydro-1H-imidazol-1-yl)methyl)-5-(1-ethyl-3-(trifluoromethyl)-1H-pyrazol-4-yl)-N-(4-fluoro-3-methylbenzyl)benzamide]",< 0.1
6,"Cc1cc([C@H](C)NC(=O)c2cc(Cn3ccn(C)c3=N)cc(OC(F)(F)F)c2)ccc1F [Example 170, (S)—N-(1-(4-Fluoro-3-methylphenyl)ethyl)-3-((2-imino-3-methyl-2,3-dihydro-1H-imidazol-1-yl)methyl)-5-(trifluoromethoxy)benzamide]",0.22
7,"C[C@H](NC(=O)c1cc(Cn2ccn(C)c2=N)cc(-c2cccnc2C(F)(F)F)c1)c1ccc(F)c(Cl)c1 [Example 124, (S)—N-(1-(3-chloro-4-fluorophenyl)ethyl)-3-((2-imino-3-methyl-2,3-dihydro-1H-imidazol-1-yl)methyl)-5-(2-(trifluoromethyl)pyridin-3-yl)benzamide]",1

# Same assay, conditions: read-out: Ki for Inhibition of WDR5 by TR-FRET assay; TR-FRET, 10mer-Thr-FAM probe, WDR5-His tag 2 nM, pH 7.0
row,Compound,Ki [nM]
1,"Cc1cc(CNC(=O)c2cc(Cn3ccn(C)c3=N)cc(-c3ccc(=O)[nH]c3C)c2)ccc1Cl [Example 80, N-(4-Chloro-3-methylbenzyl)-3-((2-imino-3-methyl-2,3-dihydro-1H-imidazol-1-yl)methyl)-5-(2-methyl-6-oxo-1,6-dihydropyridin-3-yl)benzamide]",20
2,"Cc1cc(CNC(=O)c2cc(Cn3ccn(C)c3=N)cc(-c3cnc(F)cc3C)c2)ccc1Cl [Example 79, N-(4-Chloro-3-methylbenzyl)-3-(6-fluoro-4-methylpyridin-3-yl)-5-((2-imino-3-methyl-2,3-dihydro-1H-imidazol-1-yl)methyl)benzamide]",4.3
3,"Cn1ccn(Cc2cc(C(=O)N[C@H](c3ccc(Cl)c(Cl)c3)C3CC3)cc(-c3cccnc3C(F)(F)F)c2)c1=N [Example 153, (S)—N-(Cyclopropyl(3,4-dichlorophenyl)methyl)-3-((2-imino-3-methyl-2,3-dihydro-1H-imidazol-1-yl)methyl)-5-(2-(trifluoromethyl)pyridin-3-yl)benzamide]",0.33
4,"N=C1SCCN1Cc1cc(C(=O)N[C@H](c2ccc(Cl)c(Cl)c2)C2CC2)cc(-c2cccnc2C(F)(F)F)c1 [Example 311, (S)—N-(Cyclopropyl(3,4-dichlorophenyl)methyl)-3-((2-iminothiazolidin-3-yl)methyl)-5-(2-(trifluoromethyl)pyridin-3-yl)benzamide]",1.49
5,"COc1cc(-c2cc(Cn3ccn(C)c3=N)cc(C(=O)NCc3ccc(Cl)c(Cl)c3)c2)c(F)cn1 [Example 184, N-(3,4-dichlorobenzyl)-3-(5-fluoro-2-methoxypyridin-4-yl)-5-((2-imino-3-methyl-2,3-dihydro-1H-imidazol-1-yl)methyl)benzamide]",0.56
6,"CC(C)n1cc(-c2cc(CN3CCSC3=N)cc(C(=O)N[C@H](c3ccc(F)c(F)c3)C3CC3)c2)c(C(F)(F)F)n1 [Example 319, (S)—N-(Cyclopropyl(3,4-difluorophenyl)methyl)-3-((2-iminothiazolidin-3-yl)methyl)-5-(1-isopropyl-3-(trifluoromethyl)-1H-pyrazol-4-yl)benzamide]",0.32
7,"Cc1ncccc1-c1cc(Cn2ccn(C)c2=N)cc(C(=O)NCc2cncnc2)c1 [Example 40, 3-((2-Imino-3-methyl-2,3-dihydro-1H-imidazol-1-yl)methyl)-5-(2-methylpyridin-3-yl)-N-(pyrimidin-5-ylmethyl)benzamide]",133
8,"Cc1cc([C@@H](NC(=O)c2cc(Cn3cnn(C)c3=N)cc(-c3cn(C)nc3C(F)(F)F)c2)C2CC2)ccc1F [Example 363, (S)—N-(Cyclopropyl(4-fluoro-3-methylphenyl)methyl)-3-((5-imino-1-methyl-1,5-dihydro-4H-1,2,4-triazol-4-yl)methyl)-5-(1-methyl-3-(trifluoromethyl)-H-pyrazol-4-yl)benzamide]",< 0.1
9,"Cc1ccnc(C(NC(=O)c2cc(Cn3ccn(C)c3=N)cc(-c3ccc(F)cc3C)n2)C2CC2)c1 (centres unmarked) [Example 356, N-(Cyclopropyl(4-methylpyridin-2-yl)methyl)-6-(4-fluoro-2-methylphenyl)-4-((2-imino-3-methyl-2,3-dihydro-1H-imidazol-1-yl)methyl)picolinamide]",182
10,"Cc1ccccc1-c1cc(Cn2ccn(C)c2=N)cc(C(=O)NCc2ccc(Cl)c(Cl)c2)c1 [Example 92, N-(3,4-dichlorobenzyl)-5-((2-imino-3-methyl-2,3-dihydro-1H-imidazol-1-yl)methyl)-2′-methyl-[1,1′-biphenyl]-3-carboxamide]",0.72
11,"CCOc1cc(Cn2ccn(C)c2=N)cc(C(=O)N[C@H](c2ccc(F)c(C)c2)C2CC2)c1 [Example 180, (S)—N-(Cyclopropyl(4-fluoro-3-methylphenyl)methyl)-3-methoxy-5-((2-imino-3-methyl-2,3-dihydro-1-imidazol-1-yl)methyl)benzamide]",0.13
12,"Cc1cc(F)ccc1-c1cc(Cn2ccn(C)c2=N)cc(C(=O)NCc2ccc(Cl)c(F)c2)n1 [Example 359, N-(4-Chloro-3-fluorobenzyl)-6-(4-fluoro-2-methylphenyl)-4-((2-imino-3-methyl-2,3-dihydro-1H-imidazol-1-yl)methyl)picolinamide]",8.7
13,"CCn1cc(-c2cc(Cn3ccn(C)c3=N)cc(C(=O)N[C@H](c3ccc(F)c(C)c3)C3CC3)c2)c(C)n1 [Example 225, (S)—N-(Cyclopropyl(4-fluoro-3-methylphenyl)methyl)-3-(1-ethyl-3-methyl-1H-pyrazol-4-yl)-5-((2-imino-3-methyl-2,3-dihydro-1H-imidazol-1-yl)methyl)benzamide]",< 0.1
14,"COc1ccnc([C@H](NC(=O)c2cc(Cn3ccn(C)c3=N)cc(-c3ccc(F)cc3C)c2)C2CC2)c1 [Example 93, (R)—N-(Cyclopropyl(4-methoxypyridin-2-yl)methyl)-4′-fluoro-5-((2-imino-3-methyl-2,3-dihydro-1H-imidazol-1-yl)methyl)-2′-methyl-[1,1′-biphenyl]-3-carboxamide]",1.9
15,"COc1ccnc(CNC(=O)c2cc(Cn3ccn(C)c3=N)cc(-c3cc(C)cnc3OC)c2)c1 [Example 4, 3-((2-imino-3-methyl-2,3-dihydro-1H-imidazol-1-yl)methyl)-5-(2-methoxy-5-methylpyridin-3-yl)-N-((4-methoxypyridin-2-yl)methyl)benzamide]",0.34
16,"Cc1cc([C@@H](NC(=O)c2cc(CN3CCSC3=N)cc(-c3cn(CC(C)C)nc3C(F)(F)F)c2)C2CC2)ccc1F [Example 313, (S)—N-(Cyclopropyl(4-fluoro-3-methylphenyl)methyl)-3-((2-iminothiazolidin-3-yl)methyl)-5-(1-isobutyl-3-(trifluoromethyl)-1H-pyrazol-4-yl)benzamide]",1.2
17,"N=c1n(Cc2cc(C(=O)N[C@H](c3ccc(Cl)c(Cl)c3)C3CC3)cc(-c3cccnc3C(F)(F)F)c2)ccn1C1CC1 [Example 155, (S)—N-(Cyclopropyl(3,4-dichlorophenyl)methyl)-3-((3-cyclopropyl-2-imino-2,3-dihydro-1H-imidazol-1-yl)methyl)-5-(2-(trifluoromethyl)pyridin-3-yl)benzamide]",1.4
18,"Cn1ccn(Cc2cc(C(=O)NCc3ccc(Cl)c(Cl)c3)cc(-c3cccc4c3OC(F)(F)O4)c2)c1=N [Example 168, N-(3,4-Dichlorobenzyl)-3-(2,2-difluorobenzo[d][1,3]dioxol-4-yl)-5-((2-imino-3-methyl-2,3-dihydro-1H-imidazol-1-yl)methyl)benzamide]",27
19,"COc1cc(CN(C)C(=O)c2cc(Cn3ccn(C)c3=N)cc(-c3ccnc(C)c3)c2)cc(OC)c1 [Example 48, N-(3,5-dimethoxybenzyl)-3-((2-imino-3-methyl-2,3-dihydro-1H-imidazol-1-yl)methyl)-N-methyl-5-(2-methylpyridin-4-yl)benzamide]",26
20,"Cc1cc(CNC(=O)c2cc(Cn3ccn(C)c3=N)cc(-c3c[nH]c(=O)cc3C)c2)ccc1Cl [Example 83, N-(4-Chloro-3-methylbenzyl)-3-((2-imino-3-methyl-2,3-dihydro-1H-imidazol-1-yl)methyl)-5-(4-methyl-6-oxo-1,6-dihydropyridin-3-yl)benzamide]",7.1
21,"Cc1ccnc(C(NC(=O)c2cc(Cn3ccn(C)c3=N)cc(-c3ccc(F)cc3C(F)(F)F)n2)C2CC2)c1 (centres unmarked) [Example 101, N-(Cyclopropyl(4-methylpyridin-2-yl)methyl)-6-(4-fluoro-2-(trifluoromethyl)phenyl)-4-((2-imino-3-methyl-2,3-dihydro-1H-imidazol-1-yl)methyl)picolinamide]",0.45

# — patent US10844044B2 (Vanderbilt University, priority 2018, dated 2020)
